Literature values as cited in patent US20130030007A1, “Obesity Small Molecules” (AKRON MOLECULES GMBH, priority 2010, published 2013).
Counter-ions that a name gives are not always drawn. Like-named read-outs stand apart in the source and are kept apart here. Residues, ends and D or L forms follow the SMILES beside them. *: point of attachment. Cbz = O=C(OCc1ccccc1)*

System: human ortholog of Drosophila obesity gene
Parameters: key: O: Obesity - obesity pathway interaction; B: validated binding partner
Details: cited from earlier work
[1] = interaction of the small molecule with the human ortholog(s) / Drosophila gene(s) listed in the same table line

| Structure (SMILES) | Type: Type of interaction [1] | Type: Type of interaction |
| --- | --- | --- |
| CC[C@@]1([C@@H]2O[C@@H]([C@H]3O[C@@](O)(CO)[C@H](C)C[C@@H]3C)C[C@@H]2C)CC[C@H]([C@]2(C)CC[C@]3(C[C@H](O)[C@@H](C)[C@@H]([C@@H](C)[C@@H](OC)[C@H](C)C(=O)O)O3)O2)O1 [Monensin] | O |  |
| C[C@@H]1C[C@H]2O[C@@H]2/C=C\C=C\C(=O)Cc2c(Cl)c(O)cc(O)c2C(=O)O1 [Monorden] |  | B |
| C/C=C1/C(=O)N[C@@H](C(=O)O)[C@H](C)C(=O)N[C@@H](C(C)C)C(=O)N[C@@H](/C=C/C(C)=C/[C@H](C)[C@H](Cc2ccccc2)OC)[C@H](C)C(=O)N[C@@H](C(=O)O)CCC(=O)N1C [Motuporin] |  | O |
| Cn1cnc([N+](=O)[O-])c1Sc1ncnc2nc[nH]c12 [Muran] |  | O |
| C[C@@H]1O[C@H](C[N+](C)(C)C)C[C@H]1O [Muscarine] |  | B |
| O=C(Nc1cc2ccccc2cn1)c1ccccc1NCc1ccncc1 [N-3-isoquinolinyl-2-((4-pyridinylmethyl)amino)benzamide] | O |  |
| Nc1ccc(CCN2CN(c3ccccc3)C3(CCN(CCCC(=O)c4ccc(F)cc4)CC3)C2=O)cc1 [N-(4-aminophenethyl)spiroperidol] |  | B |
| Nc1ccc(N2C(=O)C=CC2=O)cc1 [N-(4-aminophenyl)maleimide] | O |  |
| N#Cc1cccc2sc(C(=O)NC(=N)N)cc12 [N-(4-cyano-benzo (b)thiophene-2-carbonyl)guanidine] | O |  |
| C[C@H](NC(CCCCCCCN)C(=O)O)C(=O)N1CCC[C@H]1C(=O)O (some centres unmarked) [N-(8-amino-1-carboxyoctyl)-alanyl-proline] | O |  |
| O=C[C@@H]1CCCN1C(=O)[C@@H]1CCCN1C(=O)OCc1ccccc1 [N-benzyloxycarbonylprolyl-prolinal] (Cbz-Pro-Pro-aldehyde) | O |  |
| CC(NC(N)=O)c1cc2ccccc2s1 (centres unmarked) [N-dehydroxyzileuton] |  | O |
| O=C1CC(=O)N(c2ccccc2)c2cc(Cl)ccc2N1 [N-desmethylclobazam] |  | B |
| CCN1C(=O)C=CC1=O [N-ethylmaleimide] | O |  |
| C#CCOc1ccccc1CCCCCC(=O)NS(C)(=O)=O [N-methylsulfonyl-6-(2-propargyloxyphenyl)hexanamide] | O |  |
| COc1ccccc1N1CCN(CC(C(=O)NC(C)(C)C)c2ccccc2)CC1 (centres unmarked) [N-tert-butyl-3-[4-(2-methoxyphenyl)piperazin-1-yl]-2-phenylpropanamide] |  | B |
| CCCC(=O)[O-].[Na+] [NABU] |  | O |
| COc1ccccc1N1CCN(CCCCN2C(=O)c3ccccc3C2=O)CC1 [NAN-190 hydrobromide] | B |  |
| O=C1C[C@@H](c2ccc(O)cc2)Oc2cc(O)cc(O)c21 [NARIGENIN] | O |  |
| O=C(O)C[C@H](O)C[C@H](O)/C=C/c1c(C2CC2)nc2ccccc2c1-c1ccc(F)cc1 [NK 104] | B |  |
| CN[C@H](CC(=O)O)C(=O)O [NMDA] |  | O |
| CNC(=O)[C@@H](Cc1ccccc1)N(C)C(=O)[C@@H](Cc1ccc2ccccc2c1)N(C)C(=O)/C=C/CC(C)(C)N [NN 703] | B |  |
| O=c1c(-c2ccc(O)cc2)coc2cc(O)cc(O)c12 [NPI 031L] | B |  |
| CCN(CC)CCCC(C)Nc1nc(C)cc(Nc2ccc3nc(C)cc(N)c3c2)n1 (centres unmarked) [NSC 23766] |  | B |
| Nc1nc(OCC2CCCCC2)c2[nH]cnc2n1 [NU2058] |  | B |

| Structure (SMILES) | Type: Type of interaction [1] | Type: Type of interaction |
| --- | --- | --- |
| NS(=O)(=O)c1ccc(Nc2nc(OCC3CCCCC3)c3[nH]cnc3n2)cc1 [NU6102] |  | B |
| Nc1ncnc2c1c(-c1cccc(OCc3ccccc3)c1)cn2C1CC(CN2CCC2)C1 (centres unmarked) [NVP-AEW541] |  | O |
| c1ccc2ccccc2c1 [Naftalen] | B |  |
| C=CCN1CC[C@]23c4c5ccc(O)c4O[C@H]2C(=O)CC[C@@]3(O)[C@H]1C5 [Naloxone] | O |  |
| O=C1CC[C@@]2(O)[C@H]3Cc4ccc(O)c5c4[C@@]2(CCN3CC2CC2)[C@H]1O5 [Naltrexone] | B |  |
| c1ccc2c(CC3=NCCN3)cccc2c1 [Naphazoline] | O |  |
| CCc1nn(CCCN2CCN(c3cccc(Cl)c3)CC2)c(=O)n1CCOc1ccccc1 [Nefazodone] | O |  |
| Cc1c(O)cccc1C(=O)N[C@@H](CSc1ccccc1)[C@H](O)CN1C[C@H]2CCCC[C@H]2C[C@H]1C(=O)NC(C)(C)C [Nelfinavir] | O |  |
| NC[C@@H]1O[C@H](O[C@H]2[C@@H](O)[C@H](O[C@@H]3[C@@H](O)[C@H](N)C[C@H](N)[C@H]3O[C@H]3O[C@H](CN)[C@@H](O)[C@H](O)[C@H]3N)O[C@@H]2CO)[C@H](N)[C@@H](O)[C@@H]1O [Neomycin] |  | B |
| Cc1ccnc2c1NC(=O)c1cccnc1N2C1CC1 [Nevirapine] | O |  |
| NC(=O)c1cccnc1 [Niacinamide] | B |  |
| O=C(OCC(COC(=O)c1cccnc1)(COC(=O)c1cccnc1)COC(=O)c1cccnc1)c1cccnc1 [Niceritrol] | O |  |
| CO[C@@H]1C[C@@H](C[C@H]2CC[C@H](C)[C@H]([C@@H](C)C(=O)O)O2)O[C@]2(O[C@](C)([C@H]3CC[C@@](C)([C@@H]4O[C@@H]([C@H]5O[C@@](O)(CO)[C@H](C)C[C@@H]5C)C[C@@H]4C)O3)C[C@H]2C)[C@@H]1C [Nigericin] | O |  |
| COc1ccc(-c2cc(=O)c3c(OC)c(OC)c(OC)c(OC)c3o2)cc1OC [Nobiletin] | O |  |
| Oc1ccc2c3c1O[C@H]1c4[nH]c5c(c4C[C@@]4(O)[C@@H](C2)N(CC2CC2)CC[C@]314)C[C@@]1(O)[C@H]2Cc3ccc(O)c4c3[C@@]1(CCN2CC1CC1)[C@H]5O4 [Norbinaltorphimine] |  | O |
| CC(Cc1ccc(O)c(O)c1)C(C)Cc1ccc(O)c(O)c1 (centres unmarked) [Nordihydroguaiaretic Acid] | B |  |
| C#C[C@]1(O)CC[C@H]2[C@@H]3CCC4=CC(=O)CC[C@@H]4[C@H]3CC[C@@]21C [Norethindrone] | O |  |
| CN(C)CC1CCCCC1(O)c1cccc(O)c1 (centres unmarked) [O-demethyltramadol] |  | O |
| Oc1ccccc1OC(c1ccccc1)C1CNCCO1 (centres unmarked) [O-desethylreboxetine] |  | B |
| O=C(Nc1ccc(OC(F)(F)F)cc1)c1sccc1NCc1ccnc2ccccc12 [OSI 930] | O |  |
| NCC(=O)Nc1ccc(-n2nc(C(F)(F)F)cc2-c2ccc3c(ccc4ccccc43)c2)cc1 [OSU 03012] | B |  |
| C[C@@H](O)[C@@H]1NC(=O)[C@H](CCCCN)NC(=O)[C@@H](Cc2c[nH]c3ccccc23)NC(=O)[C@H](Cc2ccccc2)NC(=O)[C@@H](NC(=O)[C@H](N)Cc2ccccc2)CSSC[C@@H](C(=O)N[C@H](CO)[C@@H](C)O)NC1=O [Octreotide] |  | B and O |
| NCCO [Olamine] | B |  |
| C[Si](Cn1cncn1)(c1ccc(F)cc1)c1ccc(F)cc1 [Olymp] |  | O |
| Cc1nccn1CC1CCc2c(c3ccccc3n2C)C1=O (centres unmarked) [Ondansetron] | O |  |
